Values quoted from earlier work, collected in US7759335B2, “Cannabinoid receptor antagonists/inverse agonists useful for treating metabolic disorders, including obesity and diabetes” (Jenrm Discovery, Inc., priority 2008, dated 2010).

Settings: patients with type 2 diabetes not treated with other anti-diabetic medications; after six months of treatment; baseline value 7.9; placebo reduction 0.3%

Structure (SMILES): Cc1c(C(=O)NN2CCCCC2)nn(-c2ccc(Cl)cc2Cl)c1-c1ccc(Cl)cc1 [rimonabant]
- HbA1c levels lowered: 0.8%
